We go through three molecules from ChEMBL document CHEMBL5154899, “Spiropyrimidinetrione DNA Gyrase Inhibitors with Potent and Selective Antituberculosis Activity” (J Med Chem, 2022).

In data set [1] the target is DNA gyrase subunit A/DNA gyrase subunit B (Mycobacterium tuberculosis (strain ATCC 25618 / H37Rv), UniProt P9WG45+P9WG47). Description: Inhibition of Mycobacterium tuberculosis H37Rv DNA gyrase.
The target of data set [2] is DNA gyrase (Staphylococcus aureus, UniProt P0A0K8+P20831).
Data set [3] deals with Mycobacterium tuberculosis. Description: microbe, parasite or virus in culture. The conditions noted are these: H37Rv, 264 h.
Description: Antibacterial activity against Mycobacterium tuberculosis H37Rv gyrA -FDASTetON-1 hypomorph assessed as inhibition of bacterial growth incubated for 11 days
Data set [4] deals with Escherichia coli. In words: microbe, parasite or virus in culture. The settings on record: ATTC 25922, 192 h.
The test system of data set [5] is Mycobacterium tuberculosis. In words: microbe, parasite or virus in culture. The conditions noted are these: H37Rv, 192 h.
Description: Antibacterial activity against Mycobacterium tuberculosis H37Rv assessed as inhibition of bacterial growth measured after 8 days by Alamar blue reagent based broth microdilution method
Data set [6] deals with Staphylococcus aureus. In words: microbe, parasite or virus in culture. The conditions noted are these: ATTC 25923, 192 h.
Data set [7] deals with Mycobacterium tuberculosis. In words: microbe, parasite or virus in culture. The settings on record: H37Rv, 264 h. The source holds these as a separate data set.
Description: Antibacterial activity against wild type Mycobacterium tuberculosis H37Rv assessed as inhibition of bacterial growth incubated for 11 days
A short description of data set [8]: physchem.

≈ marks a conversion by molar mass, not a printed value.

Sequence of DNA gyrase subunit A/DNA gyrase subunit B (P9WG45 whole entry): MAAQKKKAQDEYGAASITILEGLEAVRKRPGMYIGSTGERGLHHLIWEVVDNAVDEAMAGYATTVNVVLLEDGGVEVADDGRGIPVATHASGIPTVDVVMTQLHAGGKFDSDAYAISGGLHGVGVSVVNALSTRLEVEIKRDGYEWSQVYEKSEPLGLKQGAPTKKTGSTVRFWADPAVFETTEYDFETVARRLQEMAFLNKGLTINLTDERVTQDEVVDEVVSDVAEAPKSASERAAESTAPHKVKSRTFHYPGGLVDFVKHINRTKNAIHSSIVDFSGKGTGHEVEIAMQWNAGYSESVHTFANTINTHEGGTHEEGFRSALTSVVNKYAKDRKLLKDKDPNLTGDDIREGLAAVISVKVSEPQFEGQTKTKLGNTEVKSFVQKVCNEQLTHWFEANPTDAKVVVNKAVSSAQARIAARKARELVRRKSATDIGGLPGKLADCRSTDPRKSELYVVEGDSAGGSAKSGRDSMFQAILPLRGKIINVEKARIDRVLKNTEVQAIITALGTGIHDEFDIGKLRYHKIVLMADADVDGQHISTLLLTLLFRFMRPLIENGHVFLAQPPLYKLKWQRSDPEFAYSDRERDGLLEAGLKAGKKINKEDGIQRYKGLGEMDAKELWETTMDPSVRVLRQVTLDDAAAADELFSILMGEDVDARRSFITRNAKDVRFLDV
Sequence of DNA gyrase subunit A/DNA gyrase subunit B (P9WG47 whole entry): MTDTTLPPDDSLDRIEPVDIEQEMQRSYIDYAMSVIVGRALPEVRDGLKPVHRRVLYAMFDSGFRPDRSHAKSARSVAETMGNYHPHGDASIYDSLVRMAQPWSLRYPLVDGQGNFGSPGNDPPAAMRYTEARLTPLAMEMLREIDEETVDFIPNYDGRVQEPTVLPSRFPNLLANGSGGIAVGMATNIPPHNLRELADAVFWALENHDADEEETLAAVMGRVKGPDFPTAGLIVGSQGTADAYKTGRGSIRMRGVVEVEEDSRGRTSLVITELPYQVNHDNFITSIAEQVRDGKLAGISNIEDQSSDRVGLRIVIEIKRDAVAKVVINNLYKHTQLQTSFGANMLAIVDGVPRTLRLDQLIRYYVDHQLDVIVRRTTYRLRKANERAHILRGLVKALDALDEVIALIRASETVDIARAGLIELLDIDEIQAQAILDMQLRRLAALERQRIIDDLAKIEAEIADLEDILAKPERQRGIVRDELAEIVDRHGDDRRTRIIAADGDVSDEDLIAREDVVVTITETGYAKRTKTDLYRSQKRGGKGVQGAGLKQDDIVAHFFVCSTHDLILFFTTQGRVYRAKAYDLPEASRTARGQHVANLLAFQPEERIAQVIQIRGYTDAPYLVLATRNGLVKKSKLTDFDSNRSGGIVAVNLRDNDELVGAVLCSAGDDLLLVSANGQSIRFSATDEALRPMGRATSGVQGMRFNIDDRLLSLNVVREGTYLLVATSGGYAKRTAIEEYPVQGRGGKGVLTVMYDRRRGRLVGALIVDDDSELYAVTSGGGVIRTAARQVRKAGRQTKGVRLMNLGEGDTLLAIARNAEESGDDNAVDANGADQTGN
Sequence of DNA gyrase (P0A0K8 whole entry): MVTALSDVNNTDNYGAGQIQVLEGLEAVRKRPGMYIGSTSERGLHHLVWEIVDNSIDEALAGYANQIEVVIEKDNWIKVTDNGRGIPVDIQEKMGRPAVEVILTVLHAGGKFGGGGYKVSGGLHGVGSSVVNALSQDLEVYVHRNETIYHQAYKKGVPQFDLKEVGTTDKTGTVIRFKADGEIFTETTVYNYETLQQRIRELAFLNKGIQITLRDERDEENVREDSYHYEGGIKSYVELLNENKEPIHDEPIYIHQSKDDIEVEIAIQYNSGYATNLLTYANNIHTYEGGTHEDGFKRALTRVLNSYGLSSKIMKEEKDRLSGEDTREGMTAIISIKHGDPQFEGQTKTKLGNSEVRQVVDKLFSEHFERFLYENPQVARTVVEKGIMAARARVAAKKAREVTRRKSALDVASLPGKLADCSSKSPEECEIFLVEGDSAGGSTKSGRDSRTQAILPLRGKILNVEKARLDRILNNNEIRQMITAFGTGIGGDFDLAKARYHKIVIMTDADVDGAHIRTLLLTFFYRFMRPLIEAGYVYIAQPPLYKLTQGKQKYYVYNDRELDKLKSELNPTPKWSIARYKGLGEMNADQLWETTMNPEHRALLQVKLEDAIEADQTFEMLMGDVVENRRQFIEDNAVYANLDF
Sequence of DNA gyrase (P20831 whole entry): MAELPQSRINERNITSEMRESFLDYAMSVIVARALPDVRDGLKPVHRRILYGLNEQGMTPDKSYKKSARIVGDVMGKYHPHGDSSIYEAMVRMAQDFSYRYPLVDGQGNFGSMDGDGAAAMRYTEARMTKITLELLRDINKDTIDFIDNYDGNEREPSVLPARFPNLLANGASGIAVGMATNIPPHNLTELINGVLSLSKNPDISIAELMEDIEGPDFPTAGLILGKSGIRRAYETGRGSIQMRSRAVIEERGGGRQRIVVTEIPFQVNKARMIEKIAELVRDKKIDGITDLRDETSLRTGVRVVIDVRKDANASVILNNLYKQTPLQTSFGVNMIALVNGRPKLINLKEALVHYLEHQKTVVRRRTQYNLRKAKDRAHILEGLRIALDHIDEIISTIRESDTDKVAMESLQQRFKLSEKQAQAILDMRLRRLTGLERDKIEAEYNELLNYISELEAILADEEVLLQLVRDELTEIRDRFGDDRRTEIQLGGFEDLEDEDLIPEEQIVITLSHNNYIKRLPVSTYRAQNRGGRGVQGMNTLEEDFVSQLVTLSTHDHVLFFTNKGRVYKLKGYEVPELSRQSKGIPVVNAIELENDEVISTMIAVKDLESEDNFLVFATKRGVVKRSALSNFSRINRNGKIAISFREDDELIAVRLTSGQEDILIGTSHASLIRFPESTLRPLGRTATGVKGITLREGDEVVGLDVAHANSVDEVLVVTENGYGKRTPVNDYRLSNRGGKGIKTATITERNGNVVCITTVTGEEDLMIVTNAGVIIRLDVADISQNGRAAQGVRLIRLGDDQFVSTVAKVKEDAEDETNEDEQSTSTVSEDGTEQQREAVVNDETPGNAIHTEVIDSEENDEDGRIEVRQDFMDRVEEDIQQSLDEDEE

Take `C[C@@H]1CN2c3c(cc4c(N5CC[C@H](O)C5)noc4c3F)CC3(C(=O)NC(=O)NC3=O)[C@H]2[C@H](C)O1`: the IC50 in data set [1] came to 20 µM; in data set [2], 6.9 µM. Further, the values for the MIC50 in data set [3] and in data set [7] were 0.92 µM (≈ 0.436 µg/mL) and 3.3 µM (≈ 1.56 µg/mL), respectively. Besides, the MIC99 in data set [3] was 2.4 µM (≈ 1.14 µg/mL); in data set [7], 5.9 µM (≈ 2.79 µg/mL). Further, the MIC in data set [4] is more than 125 µM; in data set [5], 5.9 µM (≈ 2.79 µg/mL); in data set [6], 64 µM (≈ 30.3 µg/mL).
For the molecule `C[C@@H]1CN2c3c(cc4c(N5C[C@@H](O)[C@H](O)C5)noc4c3F)CC3(C(=O)NC(=O)NC3=O)[C@H]2[C@H](C)O1`, the results for the IC50 in data set [1] and in data set [2] were 16 µM and 6.6 µM, respectively. Moreover, the results for the MIC50 in data set [3] and in data set [7] were 1.24 µM (≈ 0.607 µg/mL) and 3.65 µM (≈ 1.79 µg/mL), respectively. For the same molecule, the MIC99 in data set [3] amounted to 3.2 µM (≈ 1.57 µg/mL); in data set [7] it was 6.75 µM (≈ 3.3 µg/mL). Besides, the MIC was 5.9 µM (≈ 2.89 µg/mL) in data set [5] and more than 125 µM in data set [6].
Regarding `C[C@@H]1CN2c3c(cc4c(N5C(=O)OC[C@@H]5C)noc4c3F)CC3(C(=O)NC(=O)NC3=O)[C@H]2[C@H](C)O1` [ZOLIFLODACIN], the MIC50 in data set [3] amounted to 4.6 µM (≈ 2.24 µg/mL); in data set [7], 20 µM (≈ 9.75 µg/mL). In addition, the MIC99 in data set [3] is 12 µM (≈ 5.85 µg/mL); in data set [7], 44 µM (≈ 21.4 µg/mL). The molecule also returned a solubility (kinetic) at 20 h, 200 µM in data set [8] of 160 µM (≈ 78 µg/mL). The MIC came to 1.4 µM (≈ 0.682 µg/mL) in data set [4] and 0.35 µM (≈ 0.171 µg/mL) in data set [5].
